{
  "source": "ChEMBL document CHEMBL1201862",
  "about": "“PubChem BioAssay data set” (2004)",
  "assay_in_all_cases": "NCI tumour cell line growth inhibition, 48 h",
  "key": {"[1]": {"system": "A549"}, "[2]": {"system": "NCI-H522"}, "[3]": {"system": "HCC 2998"}, "[4]": {"system": "COLO 205"}, "[5]": {"system": "ACHN"}, "[6]": {"system": "M14"}, "[7]": {"system": "RPMI-8226"}, "[8]": {"system": "HOP-62"}, "[9]": {"system": "MCF7"}, "[10]": {"system": "SK-OV-3"}, "[11]": {"system": "SW-620"}, "[12]": {"system": "IGROV-1"}, "[13]": {"system": "OVCAR-3"}, "[14]": {"system": "CCRF-CEM"}, "[15]": {"system": "PC-3"}, "[16]": {"system": "SK-MEL-28"}, "[17]": {"system": "NCI-H460"}, "[18]": {"system": "XF498"}, "[19]": {"system": "U-251"}, "[20]": {"system": "SK-MEL-2"}, "[21]": {"system": "786-0"}, "[22]": {"system": "Hs-578T"}, "[23]": {"system": "KM12"}, "[24]": {"system": "DU-145"}, "[25]": {"system": "DMS-114"}, "[26]": {"system": "DLD-1"}, "[27]": {"system": "UO-31"}, "[28]": {"system": "SNB-78"}, "[29]": {"system": "MDA-MB-435"}, "[30]": {"system": "EKVX"}, "[31]": {"system": "OVCAR-4"}, "[32]": {"system": "SNB-19"}, "[33]": {"system": "UACC-257"}, "[34]": {"system": "NCI/ADR-RES"}, "[35]": {"system": "HCT-15"}, "[36]": {"system": "CAKI-1"}, "[37]": {"system": "LOX IMVI"}, "[38]": {"system": "SN12C"}, "[39]": {"system": "BT-549"}, "[40]": {"system": "RXF 393"}, "[41]": {"system": "OVCAR-5"}, "[42]": {"system": "MDA-N"}, "[43]": {"system": "SR"}, "[44]": {"system": "M19-MEL"}, "[45]": {"system": "HOP-92"}, "[46]": {"system": "HOP-18"}, "[47]": {"system": "K562"}, "[48]": {"system": "HCT-116"}, "[49]": {"system": "TK-10"}, "[50]": {"system": "A498"}, "[51]": {"system": "SF-539"}, "[52]": {"system": "UACC-62"}, "[53]": {"system": "Malme-3M"}, "[54]": {"system": "HT-29"}, "[55]": {"system": "HL-60"}, "[56]": {"system": "SF-268"}, "[57]": {"system": "MDA-MB-231"}, "[58]": {"system": "T47D"}, "[59]": {"system": "MOLT-4"}, "[60]": {"system": "SF-295"}, "[61]": {"system": "SNB-75"}, "[62]": {"system": "OVCAR-8"}, "[63]": {"system": "SK-MEL-5"}, "[64]": {"system": "NCI-H226"}, "[65]": {"system": "NCI-H23"}, "[66]": {"system": "DMS-273"}, "[67]": {"system": "KM-20L2"}},
  "note": "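Tested at 5 concentrations; 48 h exposure; 96-well plates; endpoints linearly interpolated, else capped at highest concentration. At the GI50, growth is halved.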 The source made the active and inactive calls. No stated cut-off is given here; in the data, active = GI50 up to about 1.1 µM and inactive = higher.",
  "data": [
    {"smiles": "ClCCCN1CCN(CCCl)CC1", "values": [
      {"measurement": "GI50", "setting": "[1]", "value": "110 µM (inactive)"},
      {"measurement": "GI50", "setting": "[2]", "value": "121 µM (inactive)"},
      {"measurement": "GI50", "setting": "[3]", "value": "346 µM (inactive)"},
      {"measurement": "GI50", "setting": "[4]", "value": "161 µM (inactive)"},
      {"measurement": "GI50", "setting": "[5]", "value": "11.1 µM (inactive)"},
      {"measurement": "GI50", "setting": "[6]", "value": "137 µM (inactive)"},
      {"measurement": "GI50", "setting": "[7]", "value": "205 µM (inactive)"},
      {"measurement": "GI50", "setting": "[8]", "value": "24.1 µM (inactive)"},
      {"measurement": "GI50", "setting": "[9]", "value": "65.5 µM (inactive)"},
      {"measurement": "GI50", "setting": "[10]", "value": "56.2 µM (inactive)"},
      {"measurement": "GI50", "setting": "[11]", "value": "252 µM (inactive)"},
      {"measurement": "GI50", "setting": "[12]", "value": "120 µM (inactive)"},
      {"measurement": "GI50", "setting": "[13]", "value": "167 µM (inactive)"},
      {"measurement": "GI50", "setting": "[14]", "value": "7.62 µM (inactive)"},
      {"measurement": "GI50", "setting": "[15]", "value": "383 µM (inactive)"},
      {"measurement": "GI50", "setting": "[16]", "value": "491 µM (inactive)"},
      {"measurement": "GI50", "setting": "[17]", "value": "6.24 µM (inactive)"},
      {"measurement": "GI50", "setting": "[18]", "value": "46.3 µM (inactive)"},
      {"measurement": "GI50", "setting": "[19]", "value": "118 µM (inactive)"},
      {"measurement": "GI50", "setting": "[20]", "value": "238 µM (inactive)"},
      {"measurement": "GI50", "setting": "[21]", "value": "49.7 µM (inactive)"},
      {"measurement": "GI50", "setting": "[22]", "value": "305 µM (inactive)"},
      {"measurement": "GI50", "setting": "[23]", "value": "552 µM (inactive)"},
      {"measurement": "GI50", "setting": "[24]", "value": "57.3 µM (inactive)"},
      {"measurement": "GI50", "setting": "[25]", "value": "28.9 µM (inactive)"},
      {"measurement": "GI50", "setting": "[26]", "value": "167 µM (inactive)"},
      {"measurement": "GI50", "setting": "[27]", "value": "109 µM (inactive)"},
      {"measurement": "GI50", "setting": "[28]", "value": "135 µM (inactive)"},
      {"measurement": "GI50", "setting": "[29]", "value": "282 µM (inactive)"},
      {"measurement": "GI50", "setting": "[30]", "value": "352 µM (inactive)"},
      {"measurement": "GI50", "setting": "[31]", "value": "186 µM (inactive)"},
      {"measurement": "GI50", "setting": "[32]", "value": "182 µM (inactive)"},
      {"measurement": "GI50", "setting": "[33]", "value": "284 µM (inactive)"},
      {"measurement": "GI50", "setting": "[34]", "value": "127 µM (inactive)"},
      {"measurement": "GI50", "setting": "[35]", "value": 189, "unit": "µM"},
      {"measurement": "GI50", "setting": "[36]", "value": "15.2 µM (inactive)"},
      {"measurement": "GI50", "setting": "[37]", "value": "59.8 µM (inactive)"},
      {"measurement": "GI50", "setting": "[38]", "value": "34.4 µM (inactive)"},
      {"measurement": "GI50", "setting": "[39]", "value": "124 µM (inactive)"},
      {"measurement": "GI50", "setting": "[40]", "value": "166 µM (inactive)"},
      {"measurement": "GI50", "setting": "[41]", "value": "250 µM (inactive)"},
      {"measurement": "GI50", "setting": "[42]", "value": "191 µM (inactive)"},
      {"measurement": "GI50", "setting": "[43]", "value": "7.98 µM (inactive)"},
      {"measurement": "GI50", "setting": "[44]", "value": "226 µM (inactive)"},
      {"measurement": "GI50", "setting": "[45]", "value": "105 µM (inactive)"},
      {"measurement": "GI50", "setting": "[46]", "value": "> 553 µM (inactive)"},
      {"measurement": "GI50", "setting": "[47]", "value": "212 µM (inactive)"},
      {"measurement": "GI50", "setting": "[48]", "value": "195 µM (inactive)"},
      {"measurement": "GI50", "setting": "[49]", "value": "357 µM (inactive)"},
      {"measurement": "GI50", "setting": "[50]", "value": "261 µM (inactive)"},
      {"measurement": "GI50", "setting": "[51]", "value": "35.6 µM (inactive)"},
      {"measurement": "GI50", "setting": "[52]", "value": "10.5 µM (inactive)"},
      {"measurement": "GI50", "setting": "[53]", "value": "142 µM (inactive)"},
      {"measurement": "GI50", "setting": "[54]", "value": "242 µM (inactive)"},
      {"measurement": "GI50", "setting": "[55]", "value": "4.51 µM (inactive)"},
      {"measurement": "GI50", "setting": "[56]", "value": "57.3 µM (inactive)"},
      {"measurement": "GI50", "setting": "[57]", "value": "324 µM (inactive)"},
      {"measurement": "GI50", "setting": "[58]", "value": "95.5 µM (inactive)"},
      {"measurement": "GI50", "setting": "[59]", "value": "5.24 µM (inactive)"},
      {"measurement": "GI50", "setting": "[60]", "value": "34.3 µM (inactive)"},
      {"measurement": "GI50", "setting": "[61]", "value": "119 µM (inactive)"},
      {"measurement": "GI50", "setting": "[62]", "value": "120 µM (inactive)"},
      {"measurement": "GI50", "setting": "[63]", "value": "239 µM (inactive)"},
      {"measurement": "GI50", "setting": "[64]", "value": "215 µM (inactive)"},
      {"measurement": "GI50", "setting": "[65]", "value": "69.8 µM (inactive)"},
      {"measurement": "GI50", "setting": "[66]", "value": "28.9 µM (inactive)"},
      {"measurement": "GI50", "setting": "[67]", "value": "269 µM (inactive)"}
    ]}
  ]
}
